Assay results reported in patent US10301294B2, “Compounds for the treatment of tuberculosis” (priority 2013, dated 2019).

Legend:
[1] = tested on: carbon-starved M. tuberculosis H37Rv; assay: Non-replicating IC90 determination by luciferase (carbon-starved cells); assay type: cell-based; details: luciferase; for IC99 / IC90: Mycobacterium tuberculosis, H37RV; for IC99: 120 h, read-out: Against carbon starved non-replicating Mtb IC99 (uM, luciferase); for IC99 / Against carbon starved non-replicating Mtb IC99 (uM, luciferase): None = inhibition did not reach 99%; for IC90: IC90 given in brackets beside IC99, read-out: Against carbon starved non-replicating Mtb IC90 (in brackets, luciferase)
[2] = tested on: replicating M. tuberculosis H37Rv; assay: microbe, parasite or virus in culture; assay type: cell-based; details: None = inhibition did not reach 90%; for IC90: Mycobacterium tuberculosis, H37RV, read-out: Against Replicating Mtb IC90 (uM, GFP)

COC(=O)CCCOc1ccc(-c2nnc(SCc3ccccn3)o2)cc1
IC99 [1]: 250 µM | IC90 [2]: 500 µM

CC(C)(C)c1ccc(CSc2nnc(-c3ccc(Cl)cc3)o2)cc1
IC99 [1]: 62 µM | IC90 [2]: 250 µM

COC(=O)c1ccc(C[S+]([O-])c2nnc(-c3ccc(Cl)cc3)o2)nc1 (stereo not shown)
IC99 [1]: 4 µM | IC90 [2]: 125 µM

COC(=O)CCCOc1ccc(CSc2nnc(-c3ccc(F)cc3)o2)nc1
IC99 [1]: 31 µM | IC90 [2]: 125 µM

[N-]=[N+]=NOCCNC(=O)CCCOc1ccc(-c2nnc([S+]([O-])Cc3ccccn3)o2)cc1 (stereo not shown)
IC99 [1]: 62 µM | IC90 [2]: 125 µM

[N-]=[N+]=NCCOCCNC(=O)CCCOc1ccc(CSc2nnc(-c3ccc(F)cc3)o2)nc1
Against carbon starved non-replicating Mtb IC99 (uM, luciferase) [1]: None | IC90 [2]: 125 µM

[N-]=[N+]=NCCOCCNC(=O)c1ccc(C[S+]([O-])c2nnc(-c3ccc(Cl)cc3)o2)nc1 (stereo not shown)
IC99 [1]: 62 µM | IC90 [2]: 250 µM

[N-]=[N+]=NCCOCCNC(=O)CCCOc1ccc(C[S+]([O-])c2nnc(-c3ccc(F)cc3)o2)nc1 (stereo not shown)
IC99 [1]: 31 µM | IC90 [2]: 125 µM

Fc1ccc(-c2nnc(SCCN3CCN(c4ccccc4)CC3)o2)cc1
IC90 [1]: 4 µM | Against carbon starved non-replicating Mtb IC99 (uM, luciferase) [1]: None | IC90 [2]: 250 µM

Fc1ccc(-c2nnc(SCCN3CCC(F)(F)CC3)o2)cc1
IC90 [1]: 1 µM | Against carbon starved non-replicating Mtb IC99 (uM, luciferase) [1]: None | Against Replicating Mtb IC90 (uM, GFP) [2]: None

Fc1ccc(-c2nnc(SCCN3CCCC(F)(F)C3)o2)cc1
IC99 [1]: 250 µM | IC90 [1]: 1 µM | IC90 [2]: 250 µM

[N-]=[N+]=NCCOCCNC(=O)CCCn1cc(C[S+]([O-])c2nnc(-c3ccc(F)cc3)o2)nn1 (stereo not shown)
IC99 [1]: 500 µM | IC90 [1]: 125 µM | IC90 [2]: 500 µM

[N-]=[N+]=NCCCOc1ccc(CSc2nnc(-c3ccc(F)cc3)o2)nc1
IC99 [1]: 16 µM | IC90 [2]: 31 µM

C#CCCCOc1ccc(CSc2nnc(-c3ccc(F)cc3)o2)nc1
IC99 [1]: 16 µM | IC90 [2]: 31 µM

[N-]=[N+]=NCCCOc1ccc(C[S+]([O-])c2nnc(-c3ccc(F)cc3)o2)nc1 (stereo not shown)
IC99 [1]: 4 µM | IC90 [2]: 31 µM

C#CCCCOc1ccc(C[S+]([O-])c2nnc(-c3ccc(F)cc3)o2)nc1 (stereo not shown)
IC99 [1]: 31 µM | IC90 [2]: 31 µM

C#CCOc1ccc(-c2nnc([S+]([O-])Cc3ccccn3)o2)cc1 (stereo not shown)
IC99 [1]: 31 µM | IC90 [2]: 31 µM

C#CCCCOc1cccc(-c2nnc(SCc3ccccn3)o2)c1
IC99 [1]: 16 µM | Against Replicating Mtb IC90 (uM, GFP) [2]: None

COc1cc(-c2nnc(SCc3ccccn3)o2)ccc1F
IC99 [1]: 16 µM | Against Replicating Mtb IC90 (uM, GFP) [2]: None

C#CCCCOc1cc(-c2nnc(SCc3ccccn3)o2)ccc1OC
IC99 [1]: 16 µM | Against Replicating Mtb IC90 (uM, GFP) [2]: None

C#CCCCOc1cc(-c2nnc(SCc3ccccn3)o2)ccc1F
IC99 [1]: 64 µM | IC90 [1]: 4 µM | Against Replicating Mtb IC90 (uM, GFP) [2]: None

OCCn1cc(CSc2nnc(-c3ccc(Cl)cc3)o2)nn1
IC99 [1]: 31 µM | IC90 [2]: 62 µM

COc1ccc(CSc2nnc(-c3ccc(F)cc3)o2)nc1
IC90 [2]: 16 to 31 µM

[O-][S+](Cc1ccccn1)c1nnc(-c2ccc(F)cc2)o1 (stereo not shown)
IC90 [2]: 31 µM

COc1ccc(C[S+]([O-])c2nnc(-c3ccc(F)cc3)o2)nc1 (stereo not shown)
IC90 [2]: 31 µM

c1ccc(-c2nnc(SCCC3OCCCO3)o2)cc1 [drawing 168]
IC99 [1]: 62 µM | IC90 [2]: 125 µM

Fc1ccc(CSc2nnc(-c3ccccc3)o2)cc1 [drawing 172]
Against carbon starved non-replicating Mtb IC99 (uM, luciferase) [1]: None | IC90 [2]: 125 µM

COCCSc1nnc(-c2ccccc2)o1 [drawing 175]
IC99 [1]: 16 µM | IC90 [2]: 125 µM

c1ccc(-c2nnc(SCc3ccccn3)o2)cc1 [drawing 177]
IC99 [1]: 31 µM | IC90 [2]: 100 µM

c1ccc(-c2nnc(SCc3cccnc3)o2)cc1 [drawing 178]
IC99 [1]: 250 µM | IC90 [2]: 125 µM

c1ccc(-c2nnc(SCc3ccncc3)o2)cc1 [drawing 179]
IC99 [1]: 500 µM | IC90 [2]: 250 µM

c1ccc(-c2nnc(SC3CCCCC3)o2)cc1 [drawing 181]
IC99 [1]: 62 µM | IC90 [2]: > 500 µM

[O-][n+]1ccccc1CSc1nnc(-c2ccccc2)o1 [drawing 194]
IC99 [1]: 125 µM | IC90 [2]: 62 µM

[O-][S+](Cc1ccccn1)c1nnc(-c2ccc(Cl)cc2)o1 (stereo not shown) [drawing 195]
IC99 [1]: 4 µM | IC90 [2]: 31 µM

COCC[S+]([O-])c1nnc(-c2ccc(Cl)cc2)o1 (stereo not shown) [drawing 196]
IC99 [1]: 31 µM | IC90 [2]: 31 µM

Brc1ccc(-c2nnc(SCc3ccccn3)o2)cc1 [drawing 212]
IC99 [1]: 8 µM | IC90 [2]: 31 µM

[O-][S+](Cc1ccccc1)c1nnc(-c2ccccc2)o1 (stereo not shown) [drawing 213]
IC99 [1]: 4 µM | IC90 [2]: 125 µM

O=S(=O)(Cc1ccccc1)c1nnc(-c2ccccc2)o1 [drawing 214]
IC99 [1]: 16 µM | IC90 [2]: 125 µM

Fc1ccc(-c2nnc(SCc3ccccn3)o2)cc1 [drawing 215]
IC99 [1]: 62 µM | IC90 [2]: 31 µM

Fc1cccc(-c2nnc(SCc3ccccn3)o2)c1 [drawing 216]
IC99 [1]: 16 µM | IC90 [2]: 31 µM

Brc1cccc(-c2nnc(SCc3ccccn3)o2)c1 [drawing 217]
IC99 [1]: 31 µM | IC90 [2]: 62 µM

[O-][S+](Cc1cn(Cc2ccccc2)nn1)c1nnc(-c2ccc(Cl)cc2)o1 (stereo not shown) [drawing 223]
IC99 [1]: 8 µM | IC90 [2]: 62 µM

Clc1ccc(-c2nnc(SCc3cn(Cc4ccccc4)nn3)o2)cc1 [drawing 224]
IC99 [1]: 16 µM | Against Replicating Mtb IC90 (uM, GFP) [2]: None
